Assay results taken from patent publication US20140079836A1, “METHODS AND COMPOSITIONS FOR ALTERING HEALTH, WELLBEING, AND LIFESPAN” (LifeSpan Extension, LLC, priority 2008, published 2014).

System: entire human genome (gene expression profile)
Experiment: Agilent whole human genome array, skin fibroblasts AG07999, antioxidant with or without UV
Type: cell-based
Protocol: Cell cultures: A human skin fibroblast cell culture was obtained through the Coriell Cell Repository from the National Institute on Aging Cell Repository. […] Culture media: Cells were grown in Minimal Essential Medium supplemented with 10% fetal bovine serum, 2 mM L-glutamine, 2 mM Glutamax I. […] All cultures were incubated at 37° C. with 5% CO2 in a humidified chamber. […] On Day 5 after 24 hours of exposure to test conditions, the cells were isolated and the RNA isolated using the RT^2q PCR-grade RNA isolation kit (Superarray Bioscience Corporation). […] Analysis of Agilent Whole Human Genome Arrays: RNA taken from both samples was sent to Cogenics, Inc. Morrisville, N.C. Cogenics, Inc. is a leading, state-of-the-art, microarray service provider that facilitates and accelerates transcriptome profiling and gene discovery processes for industrial and academic researchers. Cogenics' procedure for processing samples is as follows: RNA samples are received and analyzed by Cogenics, Inc. using rigorous standardized procedures that are designed to ensure quality and chain of custody. Each sample undergoes a thorough quality analysis using an Agilent Bioanalyzer microfluidics device, and is precisely quantified using a Nanodrop-1000 spectro-photometer. When the Agilent Oligonucleotide Microarray Platform is utilized, samples are fluorescently labeled using the Agilent Low-Input Linear Amplification Kit. Upon completion of this process, the labeled cRNA products are assessed using the same processes described above. These labeled samples are then fragmented and hybridized to oligonucleotide microarrays. The microarrays are washed and then scanned using an Agilent DNA Microarray Scanner with Sure Scan technology. Data is extracted from the images produced by the scanner using Agilent's Feature Extraction software. At this point, the scanned image is visually inspected for defects, and the extracted data is statistically analyzed to ensure quality of the assay. Extracted data and images can be loaded into Rosetta Resolver Gene Expression Data Analysis System for in-depth analysis, both from a quality standpoint, as well as to develop biological understanding. […] A table was generated and provided as a tab-delimited text file. This file will contain the log ratio, fold-change, log ratio p-value, etc. for every transcript measured by the microarray. Using Rosetta Resolver, a single ratio comparison was compiled based on the results of the two fluorophore reversal hybridization performed in the context of this project. The ratios were calculated such that the Tx sample was in the numerator and the UnTx sample was in the denominator. A table was generated, saved as tab-delimited text files, and is provided on the DVD that accompanied this report in the “Objective—1” subdirectory or the “Data_Analysis” directory. These files contain the log ratio, fold-change, log ratio p-value, etc. for every transcript present on the microarray. […] A table for will be generated and provided as a tab-delimited text file. The file will contain the log ratio, fold-change, log ratio p-value, etc. for only the differentially expressed transcripts within the context of the comparison. […] These criteria were applied to the comparison made in Objective 1. A table was generated, saved as tab-delimited text files, and is provided on the DVD that accompanied this report in the “Objective—1” subdirectory or the “Data_Analysis” directory. […] Cell cultures: A human skin fibroblast cell culture (or cultures) will be obtained through the Coriell Cell Repository from the National Institute on Aging Cell Repository. […] Culture media: Cells will be grown in Minimal Essential Medium supplemented with 10% fetal bovine serum, 2 mM L-glutamine, 2 mM Glutamax I.

## COC1=C(OC)C(=O)C(CCCCCCCCCCO)=C(C)C1=O [Idebenone, 6-(10-hydroxydecyl)-2,3-dimethoxy-5-methyl-1,4-benzoquin-one]
Idebenone + UVB
  TFAM Expression: 1.1
  TPO Expression: 1.0
  TROAP Expression: −1.1
  TTN Expression: 1.3
  TXNRD2 Expression: −1.6
  UNR Expression: 1.4
  VEGFA Expression: −1.3
Idebenone Alone
  AKT1 Expression: 1.0
  ALOX12 Expression: −1.1
  APOE Expression: 1.0
  ARG2 Expression: 1.0
  ATOX1 Expression: −1.0
  CAMK1 Expression: −1.1
  CAT Expression: 1.2
  CCNA1 Expression: 1.0
  CCS Expression: −1.0
  CDKN1A Expression: 1.4
  CYBA Expression: 1.0
  CYGB Expression: 1.2
  DDAH2 Expression: 1.1
  DLG4 Expression: 1.0
  DNCL1 Expression: 1.0
  DND1 Expression: 1.0
  DUOX1 Expression: 1.0
  DUOX2 Expression: −1.1
  DUSP1 Expression: −1.4
  EGFR Expression: 1.8
  EPX Expression: −1.6
  FOXM1 Expression: −1.0
  GCH1 Expression: 1.0
  GCHFR Expression: 1.0
  GLA Expression: −1.2
  GLRX2 Expression: 1.1
  GPR156 Expression: 1.3
  GPX1 Expression: 1.0
  GPX2 Expression: 1.0
  GPX3 Expression: 1.0
  GPX4 Expression: −1.3
  GPX5 Expression: 1.0
  GRIN2D Expression: 1.0
  GSS Expression: −1.1
  HSP90AB1 Expression: 1.0
  IL8 Expression: −1.2
  IL10 Expression: 1.1
  INS Expression: −1.0
  JUN Expression: 1.0
  KRT1 Expression: 1.1
  LPO Expression: 1.1
  MBL2 Expression: 1.0
  MPO Expression: 1.0
  MSRA Expression: 1.0
  MT3 Expression: −1.1
  MTL5 Expression: 1.5
  MYB Expression: 1.0
  NCF1 Expression: −1.7
  NCF2 Expression: 1.1
  NME5 Expression: 1.0
  NOS1 Expression: 1.9
  NOS2A Expression: 1.0
  NOS3 Expression: 1.0
  NOSIP Expression: 1.0
  NOSTRIN Expression: 1.1
  NOX5 Expression: 1.0
  NQO1 Expression: −1.3
  NRF1 Expression: −1.0
  NUDT1 Expression: 1.3
  OXR1 Expression: 1.0
  PGC Expression: −1.2
  PKAR1B Expression: 1.1
  PNKP Expression: 1.0
  PP3CA Expression: 1.0
  PRDX2 Expression: −1.3
  PRDX6 Expression: −1.1
  PREX1 Expression: 1.0
  PRG3 Expression: 1.0
  PRKCA Expression: 1.0
  PRNP Expression: −1.0
  RNF7 Expression: 1.2
  SCARA3 Expression: 1.1
  SCRT2 Expression: 1.4
  SELS Expression: 1.0
  SEPP1 Expression: 1.2
  SGK2 Expression: 1.2
  SIRT2 Expression: −1.0
  SOD1 Expression: −1.0
  SOD2 Expression: −1.2
  SOD3 Expression: −1.3
  SRXN1 Expression: 1.5
  TFAM Expression: −1.2
  TPO Expression: 1.0
  TROAP Expression: −1.0
  TTN Expression: 1.0
  TXNRD2 Expression: −1.3
  UNR Expression: 1.0
  VEGFA Expression: −1.7
Agent + UVB
  POT1 Expression (Human Genome Expression Values): 1.2
  RAP1 Expression (Human Genome Expression Values): −1.1
  TERT Expression (Human Genome Expression Values): −1.3
  TIN2 Expression (Human Genome Expression Values): 1.1
  TNKS2 Expression (Human Genome Expression Values): 1.1
  TNKS Expression (Human Genome Expression Values): 1.3
  TPP1 Expression (Human Genome Expression Values): 1.0
  TRF1 Expression (Human Genome Expression Values): 1.3
  TRF2 Expression (Human Genome Expression Values): −1.1
Agent Alone
  POT1 Expression (Human Genome Expression Values): −1.0
  RAP1 Expression (Human Genome Expression Values): −1.1
  TERT Expression (Human Genome Expression Values): 1.1
  TIN2 Expression (Human Genome Expression Values): 1.1
  TNKS2 Expression (Human Genome Expression Values): −1.0
  TNKS Expression (Human Genome Expression Values): 1.1
  TPP1 Expression (Human Genome Expression Values): −1.1
  TRF1 Expression (Human Genome Expression Values): −1.0
  TRF2 Expression (Human Genome Expression Values): 1.0
